{
  "source": "patent US20240158446A1",
  "about": "“CYCLIC COMPOUND HAVING SELECTIVE INHIBITORY ACTION ON KRAS OVER HRAS AND NRAS” (CHUGAI SEIYAKU KABUSHIKI KAISHA, priority 2021, published 2024)",
  "key": {"[1]": {"molecular_target": "GDP-bound NRAS wild-type protein (Homo sapiens, UniProt P01111)", "sequence (P01111 whole entry)": "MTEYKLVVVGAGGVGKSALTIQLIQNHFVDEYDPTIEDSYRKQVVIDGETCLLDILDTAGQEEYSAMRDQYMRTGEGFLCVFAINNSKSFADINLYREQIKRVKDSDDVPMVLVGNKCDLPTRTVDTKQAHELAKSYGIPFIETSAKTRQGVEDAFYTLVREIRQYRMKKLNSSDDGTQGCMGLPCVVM", "assay": "Binding to NRAS by surface plasmon resonance (SPR), Single Cycle Kinetics", "conditions": "SPR, GDP-bound NRAS wild-type protein vs GDP-bound KRAS wild-type protein"}, "[2]": {"tested_on": "human lung cancer strain NCI-H441"}, "[3]": {"molecular_target": "GDP-bound HRAS wild-type protein (Homo sapiens, UniProt P01112)", "sequence (P01112 whole entry)": "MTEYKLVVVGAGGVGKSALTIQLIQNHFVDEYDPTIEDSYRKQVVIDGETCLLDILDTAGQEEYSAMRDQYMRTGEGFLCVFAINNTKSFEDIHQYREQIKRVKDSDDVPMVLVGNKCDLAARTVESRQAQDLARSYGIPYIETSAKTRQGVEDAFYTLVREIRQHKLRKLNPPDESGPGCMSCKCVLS", "assay": "Binding to HRAS by surface plasmon resonance (SPR), Single Cycle Kinetics", "conditions": "SPR, GDP-bound HRAS wild-type protein vs GDP-bound KRAS wild-type protein"}},
  "note": "pIC50: −log10 of the molar value. Where a SMILES comes first, the peptide text is derived from it. Bridges are numbered along the chain shown (N, C = ends). [ ]: non-standard residue; d: D form. The star is where a group is joined. hPhe(3,5-F2-4-CF3) = N[C@@H](CCc1cc(F)c(C(F)(F)F)c(F)c1)C(=O)O; hPhe(3-Cl-4-CF3) = N[C@@H](CCc1ccc(C(F)(F)F)c(Cl)c1)C(=O)O; NPrPhe(4-CF3) = CCCN[C@@H](Cc1ccc(C(F)(F)F)cc1)C(=O)O; Abu(4,4,4-F3) = N[C@@H](CC(F)(F)F)C(=O)O; NMeGly(cPent) = CN[C@H](C(=O)O)C1CCCC1; Pro(4,4-Me2) = CC1(C)CN[C@H](C(=O)O)C1; Pro(4S-Me) = C[C@@H]1CN[C@H](C(=O)O)C1; NMeD = CN[C@@H](CC(=O)O)C(=O)O; NMeL = CN[C@@H](CC(C)C)C(=O)O; hPip = O=C(O)[C@@H]1CCCCCN1; αMeS = C[C@](N)(CO)C(=O)O; Morpholide = C1CN(*)CCO1; Ac5c = NC1(C(=O)O)CCCC1; Aze = O=C(O)[C@@H]1CCN1; Sar = CNCC(=O)O;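 as to pIC50: cell proliferation inhibition after four days measured by CellTiter-Glo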",
  "data": [
    {"smiles": "CCO[C@@H]1C[C@H]2C(=O)NC3(CC(C)(C)C3)C(=O)N(C)[C@@H](C3CCCC3)C(=O)N(C)[C@H](C(=O)N(C)C)CC(=O)N(C)[C@@H](CC(C)C)C(=O)N[C@@H]([C@@H](C)CC)C(=O)N(C3CC3)CC(=O)N(C)[C@H]3C/C=C\\CCN(C3=O)[C@@H](Cc3ccc(C)cc3)C(=O)N(C)CC(=O)N[C@@H](CCc3cc(F)c(C(F)(F)F)c(F)c3)C(=O)N2C1", "note": "[PP2109]", "values": [
      {"measurement": "NRAS/KRAS (ratio of KD value for NRAS to KD value for KRAS)", "setting": "[1]", "result": "A (a compound having 10 or more and less than 20 is denoted as A)"},
      {"measurement": "pIC50", "setting": "[2]", "result": 8.24},
      {"measurement": "HRAS/KRAS (ratio of KD value for HRAS to KD value for KRAS)", "setting": "[3]", "result": "A (a compound having 10 or more and less than 20 is denoted as A)"}
    ]},
    {"smiles": "CCCN1C(=O)CN(C)C(=O)[C@@H]2CCN2C(=O)[C@H]([C@@H](C)CC)NC(=O)[C@H](CC(C)C)N(C)C(=O)C[C@@H](C(=O)N2CCOCC2)N(C)C(=O)[C@H](C2CCCC2)N(C)C(=O)C2(CCCC2)NC(=O)[C@@H]2C[C@H](C)CN2C(=O)[C@H](CCc2ccc(C(F)(F)F)c(Cl)c2)NC(=O)CN(C)C(=O)[C@@H]1Cc1ccc(C(F)(F)F)cc1", "note": "[PP0453] ([NMeL]I[Aze][Sar][NPrPhe(4-CF3)][Sar][hPhe(3-Cl-4-CF3)][Pro(4S-Me)][Ac5c][NMeGly(cPent)][NMeD]-Morpholide; lactam N-11)", "values": [
      {"measurement": "NRAS/KRAS (ratio of KD value with respect to NRAS to KD value with respect to KRAS)", "setting": "[1]", "result": "B (a compound having 3 or more and less than 10 is denoted as B)"},
      {"measurement": "pIC50", "setting": "[2]", "result": 7.69},
      {"measurement": "HRAS/KRAS (ratio of KD value with respect to HRAS to KD value with respect to KRAS)", "setting": "[3]", "result": "C (A compound having a KD ratio of 0.1 or more and less than 3 is denoted as C)"}
    ]},
    {"smiles": "CCO[C@@H]1C[C@H]2C(=O)NC3(CCC3)C(=O)N(C)[C@@H](C3CCCC3)C(=O)N(C)[C@H](C(=O)N(C)C)CC(=O)N(C)[C@@H](CC3CCCC3)C(=O)N[C@@H]([C@@H](C)CC)C(=O)N(C)CC(=O)N(C)[C@H]3CCCCCN(C3=O)[C@@H](Cc3ccc(C(F)(F)F)cc3)C(=O)N(C)CC(=O)N[C@@H](CCc3cc(F)c(C(F)(F)F)c(F)c3)C(=O)N2C1", "note": "[PP0670]", "values": [
      {"measurement": "NRAS/KRAS (ratio of KD value with respect to NRAS to KD value with respect to KRAS)", "setting": "[1]", "result": "B (a compound having 3 or more and less than 10 is denoted as B)"},
      {"measurement": "pIC50", "setting": "[2]", "result": 7.95},
      {"measurement": "HRAS/KRAS (ratio of KD value with respect to HRAS to KD value with respect to KRAS)", "setting": "[3]", "result": "B (a compound having 3 or more and less than 10 is denoted as B)"}
    ]},
    {"smiles": "CCCN1C(=O)CN(C)C(=O)[C@@H]2CCN2C(=O)[C@H]([C@@H](C)CC)NC(=O)[C@H](CC(C)C)N(C)C(=O)C[C@@H](C(=O)N2CCOCC2)N(C)C(=O)[C@H](C2CCCC2)N(C)C(=O)C2(CCCC2)NC(=O)[C@@H]2CC(C)(C)CN2C(=O)[C@H](CCc2ccc(C(F)(F)F)c(Cl)c2)NC(=O)CN(C)C(=O)[C@@H]1Cc1ccc(C(F)(F)F)cc1", "note": "[PP0452] ([NMeL]I[Aze][Sar][NPrPhe(4-CF3)][Sar][hPhe(3-Cl-4-CF3)][Pro(4,4-Me2)][Ac5c][NMeGly(cPent)][NMeD]-Morpholide; lactam N-11)", "values": [
      {"measurement": "NRAS/KRAS (ratio of KD value with respect to NRAS to KD value with respect to KRAS)", "setting": "[1]", "result": "B (a compound having 3 or more and less than 10 is denoted as B)"},
      {"measurement": "pIC50", "setting": "[2]", "result": 7.47},
      {"measurement": "HRAS/KRAS (ratio of KD value with respect to HRAS to KD value with respect to KRAS)", "setting": "[3]", "result": "B (a compound having 3 or more and less than 10 is denoted as B)"}
    ]},
    {"smiles": "CCO[C@@H]1C[C@H]2C(=O)NC3(CCC3)C(=O)N(C)[C@@H](C3CCCC3)C(=O)N(C)[C@H](C(=O)N3CCOCC3)CC(=O)N(C)[C@@H](CC(C)C)C(=O)N[C@@H]([C@@H](C)CC)C(=O)N(C)CC(=O)N(C)[C@H]3CCCCCN(C3=O)[C@@H](Cc3nccs3)C(=O)N(C)CC(=O)N[C@@H](CCc3cc(F)c(C(F)(F)F)c(F)c3)C(=O)N2C1", "note": "[PP0923]", "values": [
      {"measurement": "NRAS/KRAS (ratio of KD value for NRAS to KD value for KRAS)", "setting": "[1]", "result": "B (a compound having 3 or more and less than 10 is denoted as B)"},
      {"measurement": "pIC50", "setting": "[2]", "result": 6.35},
      {"measurement": "HRAS/KRAS (ratio of KD value for HRAS to KD value for KRAS)", "setting": "[3]", "result": "B (a compound having 3 or more and less than 10 is denoted as B)"}
    ]},
    {"smiles": "CCO[C@@H]1C[C@H]2C(=O)NC3(CCC3)C(=O)N(C)[C@@H](C3CCCC3)C(=O)N(C)[C@H](C(=O)N3CCOCC3)CC(=O)N(C)[C@@H](Cc3ccccc3)C(=O)N[C@@H]([C@@H](C)CC)C(=O)N(C)CC(=O)N(C)[C@H]3CCCCCN(C3=O)[C@@H](Cc3ccc(F)cc3)C(=O)N(C)CC(=O)N[C@@H](CCc3cc(F)c(C(F)(F)F)c(F)c3)C(=O)N2C1", "note": "[PP1181]", "values": [
      {"measurement": "NRAS/KRAS (ratio of KD value for NRAS to KD value for KRAS)", "setting": "[1]", "result": "B (a compound having 3 or more and less than 10 is denoted as B)"},
      {"measurement": "pIC50", "setting": "[2]", "result": 7.58},
      {"measurement": "HRAS/KRAS (ratio of KD value for HRAS to KD value for KRAS)", "setting": "[3]", "result": "B (a compound having 3 or more and less than 10 is denoted as B)"}
    ]},
    {"smiles": "CCCN1C(=O)CN(C)C(=O)[C@@H]2CCN2C(=O)[C@H]([C@@H](C)CC)NC(=O)[C@@H]2CCCCCN2C(=O)C[C@@H](C(=O)N2CCOCC2)N(C)C(=O)[C@H](C2CCCC2)N(C)C(=O)C2(CCCC2)NC(=O)[C@@H]2CCCN2C(=O)[C@H](CCc2ccc(C(F)(F)F)c(Cl)c2)NC(=O)CN(C)C(=O)[C@@H]1Cc1ccc(C(F)(F)F)cc1", "note": "[PP0302] ([hPip]I[Aze][Sar][NPrPhe(4-CF3)][Sar][hPhe(3-Cl-4-CF3)]P[Ac5c][NMeGly(cPent)][NMeD]-Morpholide; lactam N-11)", "values": [
      {"measurement": "NRAS/KRAS (ratio of KD value for NRAS to KD value for KRAS)", "setting": "[1]", "result": "B (a compound having 3 or more and less than 10 is denoted as B)"},
      {"measurement": "pIC50", "setting": "[2]", "result": 6.90},
      {"measurement": "HRAS/KRAS (ratio of KD value for HRAS to KD value for KRAS)", "setting": "[3]", "result": "C (A compound having a KD ratio of 0.1 or more and less than 3 is denoted as C)"}
    ]},
    {"smiles": "CCCN1C(=O)CN(C)C(=O)[C@@H]2CCN2C(=O)[C@H](CC(F)(F)F)NC(=O)[C@H](CC(C)C)N(C)C(=O)C[C@@H](C(=O)N2CCOCC2)N(C)C(=O)[C@H](C2CCCC2)N(C)C(=O)C2(CCCC2)NC(=O)[C@@H]2CCCN2C(=O)[C@H](CCc2ccc(C(F)(F)F)c(Cl)c2)NC(=O)CN(C)C(=O)[C@@H]1Cc1ccc(C(F)(F)F)cc1", "note": "[PP0304] ([NMeL][Abu(4,4,4-F3)][Aze][Sar][NPrPhe(4-CF3)][Sar][hPhe(3-Cl-4-CF3)]P[Ac5c][NMeGly(cPent)][NMeD]-Morpholide; lactam N-11)", "values": [
      {"measurement": "NRAS/KRAS (ratio of KD value for NRAS to KD value for KRAS)", "setting": "[1]", "result": "B (a compound having 3 or more and less than 10 is denoted as B)"},
      {"measurement": "pIC50", "setting": "[2]", "result": 6.95},
      {"measurement": "HRAS/KRAS (ratio of KD value for HRAS to KD value for KRAS)", "setting": "[3]", "result": "B (a compound having 3 or more and less than 10 is denoted as B)"}
    ]},
    {"smiles": "CCCN1C(=O)CN(C)C(=O)[C@@H]2CCN2C(=O)[C@H]([C@@H](C)CC)NC(=O)[C@H](CC(C)C)N(C)C(=O)C[C@@H](C(=O)N2CCOCC2)N(C)C(=O)[C@H](C2CCCC2)N(C)C(=O)[C@](C)(COC)NC(=O)[C@@H]2CCCN2C(=O)[C@H](CCc2cc(F)c(C(F)(F)F)c(F)c2)NC(=O)CN(C)C(=O)[C@@H]1Cc1ccc(C(F)(F)F)cc1", "note": "[PP0779] ([NMeL]I[Aze][Sar][NPrPhe(4-CF3)][Sar][hPhe(3,5-F2-4-CF3)]P[αMeS](Me)[NMeGly(cPent)][NMeD]-Morpholide; lactam N-11)", "values": [
      {"measurement": "NRAS/KRAS (ratio of KD value with respect to NRAS to KD value with respect to KRAS)", "setting": "[1]", "result": "B (a compound having 3 or more and less than 10 is denoted as B)"},
      {"measurement": "pIC50", "setting": "[2]", "result": 6.44},
      {"measurement": "HRAS/KRAS (ratio of KD value with respect to HRAS to KD value with respect to KRAS)", "setting": "[3]", "result": "B (a compound having 3 or more and less than 10 is denoted as B)"}
    ]},
    {"smiles": "CC[C@H](C)[C@@H]1NC(=O)[C@H](CC(C)C)N(C)C(=O)C[C@@H](C(=O)N2CCOCC2)N(C)C(=O)[C@H](C2CCCC2)N(C)C(=O)C2(CCC2)NC(=O)[C@@H]2[C@H]3C[C@H]3CN2C(=O)[C@H](CCc2cc(F)c(C(F)(F)F)c(F)c2)NC(=O)CN(C)C(=O)[C@H](Cc2ccc(C(F)(F)F)cc2)N2CCCCC[C@@H](C2=O)N(C)C(=O)CN(C)C1=O", "note": "[PP0819]", "values": [
      {"measurement": "NRAS/KRAS (ratio of KD value for NRAS to KD value for KRAS)", "setting": "[1]", "result": "A (a compound having 10 or more and less than 20 is denoted as A)"},
      {"measurement": "pIC50", "setting": "[2]", "result": 7.12},
      {"measurement": "HRAS/KRAS (ratio of KD value for HRAS to KD value for KRAS)", "setting": "[3]", "result": "B (a compound having 3 or more and less than 10 is denoted as B)"}
    ]}
  ]
}
